Results: patent US9556135B2, “Amino-dihydrothiazine and amino-dioxido dihydrothiazine compounds as beta-secretase antagonists and methods of use” (Amgen Inc., priority 2012, dated 2017)
Where two headings read alike, the source gives them in different places.

Assays:
[1] = system: Aβ40 in conditioned medium of cells stably expressing Amyloid Precursor Protein (APP); experiment: In vitro BACE cell-based assay (HEK cell assay), Aβ40 sandwich ELISA
Protocol: In Vitro BACE Cell-Based Assay
The cell-based assay measures inhibition or reduction of Aβ40 in conditioned medium of test compound treated cells expressing amyloid precursor protein.
Cells stably expressing Amyloid Precursor Protein (APP) were plated at a density of 40K cells/well in 96 well plates (Costar). The cells were cultivated for 24 hours at 37° C. and 5% CO2 in DMEM supplemented with 10% FBS. The test compounds were then added to cells in 10-point dose response concentrations with the starting concentration being either 100 μM or 10 μM. The compounds were diluted from stock solutions in DMSO and the final DMSO concentration of the test compounds on cells was 0.1%. After 24 h of incubation with the test compounds the supernatant conditioned media was collected and the Aβ 40 levels were determined using a sandwich ELISA. The IC50 of the compound was calculated from the percent of control or percent inhibition of Aβ 40 as a function of the concentration of the test compound.
The sandwich ELISA to detect Aβ 40 was performed in 96 well microtiter plates, which were pre-treated with goat anti-rabbit IgG (Pierce). The capture and detecting antibody pair that were used to detect Aβ 40 from cell supernatants were affinity purified pAb40 (Biosource) and biotinylated 6E10 (Signet Labs Inc.), respectively. The optimal concentration for the pAb40 antibody was 3 μg/ml in Superblock/TBS (Pierce) that was supplemented with 0.05% Tween 20 (Sigma).
Cellular supernatants were incubated with the capture antibody for 3 h at 4° C., followed by 3 wash steps in TBS-tween (0.05%). The detecting antibody incubation was for 2 h at 4° C., again followed by the wash steps as described previously. The final readout of the ELISA is Time-Resolved Fluorescence (counts per minute) using Delfia reagents Streptavidin-Europium and Enhancement solutions (Perkin Elmer) and the Victor 2 multilabel counter (Perkin Elmer).

[2] = target: Beta Secretase enzyme (BACE1) (Homo sapiens (Human), UniProt P56817); experiment: In vitro enzymatic BACE FRET assay; format: biochemical
Sequence of Beta Secretase enzyme (BACE1) (P56817 46-501): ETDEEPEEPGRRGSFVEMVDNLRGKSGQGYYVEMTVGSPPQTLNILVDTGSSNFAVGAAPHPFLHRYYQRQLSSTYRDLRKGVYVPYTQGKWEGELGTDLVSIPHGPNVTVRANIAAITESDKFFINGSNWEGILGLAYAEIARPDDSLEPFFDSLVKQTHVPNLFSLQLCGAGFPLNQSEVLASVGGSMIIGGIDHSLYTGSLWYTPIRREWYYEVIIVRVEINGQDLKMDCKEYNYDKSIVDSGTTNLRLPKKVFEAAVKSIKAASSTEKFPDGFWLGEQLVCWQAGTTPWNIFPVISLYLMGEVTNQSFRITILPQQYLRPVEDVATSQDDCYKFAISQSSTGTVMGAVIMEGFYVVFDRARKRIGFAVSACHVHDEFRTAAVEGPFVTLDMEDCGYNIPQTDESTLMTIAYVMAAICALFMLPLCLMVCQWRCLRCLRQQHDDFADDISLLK
Protocol: In Vitro Enzymatic BACE FRET (Fluorescence Resonance Energy Transfer) Assay (Enzyme Assay Data in the Example Tables I and II)
The assay buffer used in this screen is 0.05 M acetate, pH 4.2, 10% DMSO final, 100 uM genapol (which is a nonionic detergent, below its Critical Micelle Concentration). […] This assay is effectively started by the addition of FRET substrate (50 nM) and the combination is incubated for one hour. The FRET assay is terminated with by addition of Tris buffer, which raises the pH to neutrality, and the fluorescence is determined. The FRET substrate is a peptide with commercially available fluorophore and quencher, on opposite sides of the BACE cleavage site. Proteolytic cleavage of the FRET substrate releases quenching of fluorescence (excitation […] and […]).

Cathepsin D (Cat D) = Cathepsin D (Cat D) (Homo sapiens (Human), UniProt P07339); experiment: In vitro enzymatic Cathepsin D (Cat D) FRET assay; format: biochemical; settings: read-out: CatD IC50
Sequence of Cathepsin D (Cat D) (P07339 65-412, species assumed): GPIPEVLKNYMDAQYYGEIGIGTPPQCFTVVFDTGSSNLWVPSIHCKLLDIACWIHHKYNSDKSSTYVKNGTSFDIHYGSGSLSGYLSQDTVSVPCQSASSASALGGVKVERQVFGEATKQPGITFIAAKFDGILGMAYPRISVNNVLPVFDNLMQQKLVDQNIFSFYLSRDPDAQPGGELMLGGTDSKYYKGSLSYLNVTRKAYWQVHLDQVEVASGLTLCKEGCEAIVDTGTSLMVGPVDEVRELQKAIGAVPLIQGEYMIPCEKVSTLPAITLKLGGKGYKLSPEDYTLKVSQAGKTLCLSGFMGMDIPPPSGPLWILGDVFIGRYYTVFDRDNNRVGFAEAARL
Protocol: In Vitro Enzymatic Cathepsin D (Cat D) FRET (Fluorescence Resonance Energy Transfer) Assay Recombinant Cat D was expressed in CHO cells. […] The Cat D enzyme (9 nM) is pre-incubated for one hour with inhibitors, typically in about 1 uL of DMSO according to a serial dilution, is added thereto. […] The FRET assay is terminated with by addition of Tris buffer, which raises the pH to neutrality, and the fluorescence is determined. The FRET substrate is a peptide with commercially available fluorophore and quencher, on opposite sides of the BACE cleavage site. The Cat D substrate peptide sequence is based on sequence #1 of Table 1 from Gulnik et al. […] Where available, the in-vitro Cat D FRET assay data for each of the Examples, conducted by the first procedure, is provided.

Abeta 40 = experiment: In vivo inhibition of beta-secretase: Abeta 40 reduction in CSF and brain of the rat; settings: 10 mpk (unless otherwise noted), after 4 hrs
[3] = average IC50, enzyme assay (Table II)
[4] = Homo sapiens, HEK293, average IC50, HEK cell assay

COc1cnc(C(=O)Nc2ccc(F)c([C@@]3(C(F)(F)F)CS(=O)(=O)C(C)(C)C(N)=N3)c2)cn1 [Example 34, N-(3-((3R)-5-amino-6,6-dimethyl-1,1-dioxido-3-(trifluoromethyl)-3,6-dihydro-2H-1,4-thiazin-3-yl)-4-fluorophenyl)-5-methoxy-2-pyrazinecarboxamide]
IC50 ([1]; Homo sapiens, HEK293, Aβ40 in conditioned medium after 24 h incubation): > 10000 nM
IC50 [2]: 883 nM
IC50 (Cathepsin D (Cat D)): > 400000 nM

COc1cnc(C(=O)Nc2cc([C@@]3(C)CS(=O)(=O)C(C)(C)C(N)=N3)c(F)cn2)cn1 [Example 142, (S)—N-(4-(5-amino-3,6,6-trimethyl-1,1-dioxido-3,6-dihydro-2H-1,4-thiazin-3-yl)-5-fluoropyridin-2-yl)-5-methoxypyrazine-2-carboxamide]
IC50 ([1]; Homo sapiens, HEK293, average IC50): 4360 nM
IC50 ([2]; average IC50): 10000 nM
IC50 (Cathepsin D (Cat D)): > 400000 nM

COc1cnc(C(=O)Nc2cc([C@]3(C)CS(=O)(=O)C(C)(C)C(N)=N3)c(F)cn2)cn1 [Example 143, (R)—N-(4-(5-amino-3,6,6-trimethyl-1,1-dioxido-3,6-dihydro-2H-1,4-thiazin-3-yl)-5-fluoropyridin-2-yl)-5-methoxypyrazine-2-carboxamide]
IC50 ([1]; Homo sapiens, HEK293, average IC50, cell assay (Table II)): 462 nM
IC50 [2, 3]: 115 nM
IC50 (Cathepsin D (Cat D); Table II): 221000 nM

Cc1cc(C(F)F)cnc1C(=O)Nc1ccc(F)c([C@]2(C)CS(=O)(=O)[C@]3(C[C@@H](F)C3)C(N)=N2)c1 [Example 338, N-(3-((2S,4s,7R)-9-amino-2-fluoro-7-methyl-5,5-dioxido-5-thia-8-azaspiro[3.5]non-8-en-7-yl)-4-fluorophenyl)-5-(diffuoromethyl)-3-methyl-2-pyridinecarboxamide]
IC50 ([1]; average IC50, cell assay (Table II)): 10.8 nM
IC50 [2, 3]: 2.94 nM
IC50 (Cathepsin D (Cat D); Table II): 59000 nM

COc1cnc(C(=O)Nc2ccc(F)c([C@]34COC[C@H]3S(=O)(=O)C(C)(C)C(N)=N4)c2)c(C)c1 [Example 430, N-(3-((4aS,7aS)-3-amino-2,2-dimethyl-1,1-dioxido-7,7a-dihydro-2H-furo[3,4-13][1,4]thiazin-4a(5H)-yl)-4-fluorophenyl)-5-methoxy-3-methyl-2-pyridinecarboxamide]
% reduction of rat CSF levels at 10 pmk (Abeta 40; rat CSF): 31%
% reduction of rat brain levels at 10 mpk (Abeta 40; rat brain): 1%
IC50 ([1]; average IC50, cell assay): 11.7 nM
IC50 ([2]; average IC50, enzyme assay): 4.1 nM

CC1(C)C(N)=N[C@](CF)(c2cc(Nc3nccc4cc(Cl)cnc34)ccc2F)CS1(=O)=O [Example 448, N-(3-((3S)-5-amino-3-(fluoromethyl)-6,6-dimethyl-1,1-dioxido-3,6-dihydro-2H-1,4-thiazn-3-yl)-4-fluorophenyl)-3-chloro-1,7-naphthyridin-8-amine]
IC50 ([1]; average IC50, cell assay): 28.5 nM

CO[C@H]1C[C@]2(C1)C(N)=N[C@](C)(c1cc(NC(=O)c3ncc(Cl)cc3C)ccc1F)CS2(=O)=O [Example 460, N-(3-((2R,4r,7R)-9-amino-2-methoxy-7-methyl-5,5-dioxido-5-thia-8-azaspiro[3.5]non-8-en-7-yl)-4-fluorophenyl)-5-chloro-3-methylpicolinamide]
IC50 [1, 4]: 34.9 nM
IC50 ([2]; average IC50, enzyme assay): 4 nM
IC50 (Cathepsin D (Cat D); Cathepsin D FRET assay): 466000 nM

COc1cnc(C(=O)Nc2ccc(F)c([C@]3(C)CS(=O)(=O)[C@]4(C[C@H](OC)C4)C(N)=N3)c2)c(C)c1 [Example 461, N-(3-((2R,4r,7R)-9-amino-2-methoxy-7-methyl-5,5-dioxido-5-thia-8-azaspiro[3.5]non-8-en-7-yl)-4-fluorophenyl)-5-methoxy-3-methylpicolinamide]
IC50 [1, 4]: 28 nM
IC50 ([2]; average IC50, enzyme assay): 15.7 nM
IC50 (Cathepsin D (Cat D); Cathepsin D FRET assay): 399000 nM

Cc1c(C(=O)Nc2ccc(F)c([C@@]3(C)N=C(N)C4(CC4)S(=O)(=O)[C@H]3F)c2)nc2ccc(Cl)cn12 [Example 462, N-(3-((5R,6R)-8-amino-5-fluoro-6-methyl-4,4-dioxido-4-thia-7-azaspiro[2.5]oct-7-en-6-yl)-4-fluorophenyl)-6-chloro-3-methylimidazo[1,2-a]pyridine-2-carboxamide]
IC50 [1, 4]: 10.4 nM
IC50 ([2]; average IC50, enzyme assay): 3.2 nM
IC50 (Cathepsin D (Cat D); Cathepsin D FRET assay): 60100 nM

COc1cnc(C(=O)Nc2ccc(F)c([C@]3(C)CS(=O)(=O)[C@]4(C[C@@H](F)C4)C(N)=N3)c2)c(C)c1 [Example 463, N-(3-((2S,4s,7R)-9-amino-2-fluoro-7-methyl-5,5-dioxido-5-thia-8-azaspiro[3.5]non-8-en-7-yl)-4-fluorophenyl)-5-methoxy-3-methylpicolinamide]
IC50 [1, 4]: 13.2 nM
IC50 ([2]; average IC50, enzyme assay): 4.6 nM
IC50 (Cathepsin D (Cat D); Cathepsin D FRET assay): 76500 nM

Cc1c(C(=O)Nc2ccc(F)c([C@]3(C)CS(=O)(=O)[C@]4(C[C@@H](F)C4)C(N)=N3)c2)nc2ccc(Cl)cn12 [Example 464, N-(3-((2 S,4s,7R)-9-amino-2-fluoro-7-methyl-5,5-dioxido-5-thia-8-azaspiro[3.5]non-8-en-7-yl)-4-fluorophenyl)-6-chloro-3-methylimidazo[1,2-a]pyridine-2-carboxamide]
IC50 [1, 4]: 6 nM
IC50 ([2]; average IC50, enzyme assay): 4 nM
IC50 (Cathepsin D (Cat D); Cathepsin D FRET assay): 67400 nM

N-(3-((4aR,7aR)-3-amino-2,2-dimethyl-1,1-dioxido-7,7a-dihydro-2H-furo[3,4-b][1,4]thiazin-4a(5H)-yl)-4-fluorophenyl)-5-(difluoromethoxy)-3-methyl-2-pyridinecarboxamide,N-(3-((4aS,7aS)-3-amino-2,2-dimethyl-1,1-dioxido-7,7a-dihydro-2H-furo[3,4-b][1,4]thiazin-4a(5H)-yl)-4-fluorophenyl)-5-(difluoromethoxy)-3-methyl-2-pyridinecarboxamide [Example 413]
IC50 ([1]; average IC50): 10.3 nM
IC50 ([2]; average IC50): 2.65 nM
IC50 (Cathepsin D (Cat D)): 111000 nM

N-(3-((4aR,7aS)-3-amino-2,2-dimethyl-1,1-dioxido-7,7a-dihydro-2H-furo[3,4-b][1,4]thiazin-4a(5H)-yl)-4-fluorophenyl)-3-chloro-1,7-naphthyridin-8-amine,N-(3-((4aS,7aR)-3-amino-2,2-dimethyl-1,1-dioxido-7,7a-dihydro-2H-furo[3,4-b][1,4]thiazin-4a(5H)-yl)-4-fluorophenyl)-3-chloro-1,7-naphthyridin-8-amine [Example 429]
IC50 ([1]; average IC50, cell assay): 157 nM
IC50 ([2]; average IC50, enzyme assay): 4.6 nM
IC50 (Cathepsin D (Cat D)): 131000 nM

N-(3-((4aR,7aS)-3-amino-2,2-dimethyl-1,1-dioxido-7,7a-dihydro-2H-furo[3,4-b][1,4]thiazin-4a(5H)-yl)-4-fluorophenyl)-5-chloro-2-pyridinecarboxamide,N-(3-((4aS,7aR)-3-amino-2,2-dimethyl-1,1-dioxido-7,7a-dihydro-2H-furo[3,4-b][1,4]thiazin-4a(5H)-yl)-4-fluorophenyl)-5-chloro-2-pyridinecarboxamide [Example 426]
IC50 ([1]; average IC50, cell assay): 13.6 nM
IC50 ([2]; average IC50, enzyme assay): 1.5 nM
IC50 (Cathepsin D (Cat D)): 170000 nM

N-(3-((4aR,7aS)-3-amino-2,2-dimethyl-1,1-dioxido-7,7a-dihydro-2H-furo[3,4-b][1,4]thiazin-4a(5H)-yl)-4-fluorophenyl)-5-chloro-3-methyl-2-pyridinecarboxamide,N-(3-((4aS,7aR)-3-amino-2,2-dimethyl-1,1-dioxido-7,7a-dihydro-2H-furo[3,4-13][1,4]thiazin-4a(5H)-yl)-4-fluorophenyl)-5-chloro-3-methyl-2-pyridinecarboxamide [Example 427]
IC50 ([1]; average IC50, cell assay): 33 nM
IC50 ([2]; average IC50, enzyme assay): 1 nM
IC50 (Cathepsin D (Cat D)): 220000 nM
